How the values were obtained:
Type in all cases: functional, cell-based
[1] = molecular target: T1, Peroxisome proliferator-activated receptor delta (Homo sapiens, UniProt Q03181); experiment: Agonist activity at PPAR-beta/delta-LBD expressed in HEK293 cells assessed as Gal4-DBD interaction by cellular mammalian one hybrid assay
T1 sequence (Q03181 whole entry): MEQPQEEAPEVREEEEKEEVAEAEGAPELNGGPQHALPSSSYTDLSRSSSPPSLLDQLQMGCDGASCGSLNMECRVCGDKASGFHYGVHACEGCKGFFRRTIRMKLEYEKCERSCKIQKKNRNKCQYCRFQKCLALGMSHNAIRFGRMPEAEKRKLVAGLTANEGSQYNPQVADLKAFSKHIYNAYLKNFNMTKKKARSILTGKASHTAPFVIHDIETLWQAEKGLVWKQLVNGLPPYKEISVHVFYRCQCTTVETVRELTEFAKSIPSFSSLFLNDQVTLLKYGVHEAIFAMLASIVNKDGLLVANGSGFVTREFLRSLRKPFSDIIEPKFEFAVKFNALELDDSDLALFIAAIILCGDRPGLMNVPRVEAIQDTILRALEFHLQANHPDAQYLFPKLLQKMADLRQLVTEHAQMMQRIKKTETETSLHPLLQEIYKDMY

[2] = molecular target: T2, Oxysterols receptor LXR-alpha (Homo sapiens, UniProt Q13133); experiment: Agonist activity at LXRalpha-LBD expressed in HEK293 cells assessed as Gal4-DBD interaction by cellular mammalian one hybrid assay
T2 sequence (Q13133 whole entry): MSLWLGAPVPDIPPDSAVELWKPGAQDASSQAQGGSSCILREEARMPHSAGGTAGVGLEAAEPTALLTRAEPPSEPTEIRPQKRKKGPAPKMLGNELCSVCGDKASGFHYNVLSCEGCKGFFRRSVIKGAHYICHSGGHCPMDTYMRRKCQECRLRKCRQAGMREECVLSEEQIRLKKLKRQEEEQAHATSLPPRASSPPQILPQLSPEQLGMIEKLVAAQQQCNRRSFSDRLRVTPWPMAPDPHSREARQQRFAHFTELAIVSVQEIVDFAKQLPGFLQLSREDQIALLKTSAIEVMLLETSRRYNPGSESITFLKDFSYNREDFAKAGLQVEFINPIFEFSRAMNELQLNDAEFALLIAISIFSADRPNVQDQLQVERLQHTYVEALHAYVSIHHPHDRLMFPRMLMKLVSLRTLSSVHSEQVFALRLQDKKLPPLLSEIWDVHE

[3] = molecular target: T3, Estrogen receptor (Homo sapiens) (UniProt P03372); experiment: Agonist activity at ERalpha-LBD expressed in HEK293 cells assessed as Gal4-DBD interaction by cellular mammalian one hybrid assay relative to 17-beta-estradiol
T3 sequence (whole entry): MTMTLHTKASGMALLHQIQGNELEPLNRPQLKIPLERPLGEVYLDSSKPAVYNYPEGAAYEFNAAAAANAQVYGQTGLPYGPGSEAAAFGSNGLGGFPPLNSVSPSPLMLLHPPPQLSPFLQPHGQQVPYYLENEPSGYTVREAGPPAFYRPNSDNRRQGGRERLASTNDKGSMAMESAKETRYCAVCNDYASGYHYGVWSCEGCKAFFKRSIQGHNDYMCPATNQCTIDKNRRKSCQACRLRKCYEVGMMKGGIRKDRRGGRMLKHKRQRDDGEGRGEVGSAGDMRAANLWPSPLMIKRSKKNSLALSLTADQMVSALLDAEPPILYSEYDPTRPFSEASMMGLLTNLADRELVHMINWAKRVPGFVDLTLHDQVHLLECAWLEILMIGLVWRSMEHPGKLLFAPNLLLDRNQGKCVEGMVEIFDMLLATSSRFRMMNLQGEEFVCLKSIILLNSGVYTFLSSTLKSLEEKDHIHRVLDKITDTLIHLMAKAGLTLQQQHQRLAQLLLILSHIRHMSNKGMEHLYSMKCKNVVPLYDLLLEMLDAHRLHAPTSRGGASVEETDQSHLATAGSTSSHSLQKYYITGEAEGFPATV

[4] = molecular target: T4, PXR (nuclear receptor subfamily 1 group I member 2) (Homo sapiens, UniProt O75469); experiment: Agonist activity at PXR-LBD expressed in HEK293 cells assessed as Gal4-DBD interaction by cellular mammalian one hybrid assay relative to SR-12813; conditions: HEK293 cells expressing PXR-LBD, read-out: Efficacy
T4 sequence (O75469 whole entry): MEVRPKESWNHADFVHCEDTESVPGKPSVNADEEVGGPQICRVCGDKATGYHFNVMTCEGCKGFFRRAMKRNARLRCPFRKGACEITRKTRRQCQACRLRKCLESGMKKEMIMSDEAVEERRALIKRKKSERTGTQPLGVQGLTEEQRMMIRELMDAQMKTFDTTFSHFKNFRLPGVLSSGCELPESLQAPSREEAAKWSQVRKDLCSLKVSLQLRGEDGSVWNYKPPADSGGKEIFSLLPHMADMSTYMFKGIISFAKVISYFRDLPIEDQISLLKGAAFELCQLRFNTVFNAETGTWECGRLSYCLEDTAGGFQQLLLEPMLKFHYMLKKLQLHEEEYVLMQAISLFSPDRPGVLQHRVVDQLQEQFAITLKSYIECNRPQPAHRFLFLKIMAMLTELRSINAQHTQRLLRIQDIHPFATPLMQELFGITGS

Q: `CN(Cc1ccc(C(=O)O)cc1)c1ccc(OCc2c(-c3c(Cl)cccc3Cl)noc2C2CC2)nc1C(F)(F)F` was tested. Which EC50 [1] did it give?
A: > 10 µM

Q: And the EC50 [2]?
A: > 10 µM

Q: What about the Efficacy [3] of the same compound?
A: 0%

Q: And the Emax [4]?
A: 67%

Q: For `CN(Cc1cccc(C(=O)O)c1)c1ccc(OCc2c(-c3c(Cl)cccc3Cl)noc2C2CC2)nc1C(F)(F)F`, which EC50 [1] is on record?
A: > 10 µM

Q: What about the EC50 [2] of the same compound?
A: > 10 µM

Q: And the Efficacy [3]?
A: 24%

Q: What about the Emax [4] of the same compound?
A: 62%

Q: How did the EC50 [1] turn out when `CC(C)c1onc(-c2c(Cl)cccc2Cl)c1COc1ccc(N(C)Cc2ccc(C(=O)O)cc2)c(C(F)(F)F)n1` was run?
A: > 10 µM

Q: What about the EC50 [2] of the same compound?
A: > 10 µM

Q: What about the Efficacy [3] of the same compound?
A: 0%

Q: And the Emax [4]?
A: 60%
